The record followed here is ChEMBL document CHEMBL1134723, “Synthesis and evaluation of the sunflower derived trypsin inhibitor as a potent inhibitor of the type II transmembrane serine protease, matriptase” (Bioorg Med Chem Lett, 2001).

This assay concerns the target Prothrombin (Bos taurus, UniProt P00735). Description: Compound was tested for inhibition of bovine Thrombin.

As usually defined, the Ki is the equilibrium dissociation constant of an inhibitor or competing ligand from its target. Compound `CC[C@H](C)[C@@H]1NC(=O)[C@@H]2CCCN2C(=O)[C@@H]2CCCN2C(=O)[C@H]([C@@H](C)CC)NC(=O)[C@H](CO)NC(=O)[C@H](CCCCN)NC(=O)[C@H]([C@@H](C)O)NC(=O)[C@@H]2CSSC[C@H](NC1=O)C(=O)N[C@@H](Cc1ccccc1)C(=O)N1CCC[C@@H]1C(=O)N[C@@H](CC(=O)O)C(=O)NCC(=O)N[C@@H](CCCN=C(N)N)C(=O)N2` registered an inhibitory constant (Ki) of 5.05 µM.
